{"source": "patent EP4692096A1", "about": "“MACROCYCLIC COMPOUND, AND PHARMACEUTICAL COMPOSITION AND USE THEREOF” (Prime Gene Therapeutics Co., Ltd., priority 2023, dated 2024)", "key": {"[1]": {"test": "Blood-brain penetration test in rats", "format": "in vivo, Male SD rats", "conditions": "for Kp at 0.5 h / Kp at 5 min / concentration at 0.5 h: male, SD, rat; for Kp at 0.5 h / Kp at 5 min: brain/plasma; for Kp at 5 min: IV 2 mg/kg, 5 min after administration; for concentration at 0.5 h: 0.5 h after oral administration (PO, 10 mg/kg)", "experimental": "Male SD rats were divided into groups of three animals each, which were administered the compounds to be tested either by single oral gavage (PO, 10 mg/kg) or by single intravenous injection (IV, 2 mg/kg). Animals were fasted overnight prior to dosing, beginning 10 hours before administration and continuing until 4 hours after dosing. Rats were sacrificed at 0.5 hours after PO administration (or 5 min after IV administration). Blood and brain tissues were collected. The samples were centrifuged at 4000 rpm for 5 min at 4 °C, and plasma was transferred to centrifuge tubes and stored at -80°C until analysis. Plasma samples were processed by protein precipitation extraction, and the extracts were analyzed by LC/MS/MS."}, "TYK2-JH2": {"target": "T1, TYK2-JH2 (Homo sapiens, UniProt P29597)", "T1 construct": "Enzymatic activity(IC50) assay of compounds against TYK2-JH2 and JAK1-JH2", "T1 sequence (P29597 589-875 limits assumed)": "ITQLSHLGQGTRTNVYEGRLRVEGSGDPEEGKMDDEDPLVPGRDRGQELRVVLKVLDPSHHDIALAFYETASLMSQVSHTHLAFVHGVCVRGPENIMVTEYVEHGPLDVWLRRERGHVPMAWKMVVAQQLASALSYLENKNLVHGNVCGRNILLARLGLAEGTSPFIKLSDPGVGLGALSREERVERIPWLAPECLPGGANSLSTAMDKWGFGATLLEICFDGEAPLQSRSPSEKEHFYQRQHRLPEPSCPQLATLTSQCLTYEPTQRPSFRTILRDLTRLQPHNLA", "test": "Enzymatic activity (IC50) assay against TYK2-JH2 (fluorescence polarisation, JH2 probe 1)", "format": "binding", "experimental": "(§1) Using an Echo liquid handler, 50 nL of the compound to be tested was transferred into a 384-well reaction plate, in duplicate wells for each compound. The plate was subjected to centrifugation at 1000 rpm for 1 min and the final DMSO concentration was 0.5%. Subsequently, 5 µL of TYK2 (or JAK1) was added to the plate, centrifuged at 1000 rpm for 1 min, and incubated at 25 °C for 10 min. Then, 5 µL of JH2 probe 1 was added to the plate, centrifuged at 1000 rpm for 1 min, and incubation at 25 °C for 60 min. FP 520/48 signals were measured using a BMG high-throughput multifunctional plate reader. Data from the TYK2-JH2 assay were analyzed using GraphPad Prism 8 software. […] After calculating inhibition rates, IC50 values (half-maximal inhibitory concentrations) of the control compounds and the compounds to be tested were determined using nonlinear regression fitting of software. [formula] • Datapositive control: mean value of positive control wells • Datanegative control: mean value of negative control wells"}, "JAK1-JH2": {"target": "T2, JAK1-JH2 (Homo sapiens, UniProt P23458)", "T2 construct": "Enzymatic activity(IC50) assay of compounds against TYK2-JH2 and JAK1-JH2", "T2 sequence (P23458 583-855 limits assumed)": "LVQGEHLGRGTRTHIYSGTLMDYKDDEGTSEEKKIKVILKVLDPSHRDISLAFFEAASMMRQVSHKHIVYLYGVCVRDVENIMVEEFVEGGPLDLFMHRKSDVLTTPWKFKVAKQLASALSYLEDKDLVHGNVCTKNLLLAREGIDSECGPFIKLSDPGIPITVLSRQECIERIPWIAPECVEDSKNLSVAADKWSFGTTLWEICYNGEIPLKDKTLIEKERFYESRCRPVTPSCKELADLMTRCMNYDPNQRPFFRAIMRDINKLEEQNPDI", "test": "Enzymatic activity (IC50) assay against JAK1-JH2 (fluorescence polarisation, JH2 probe 1)", "format": "binding", "experimental": "as §1"}, "[2]": {"test": "Pharmacokinetic experiment in rats", "format": "in vivo, Male SD rats", "conditions": "for Vd: plasma, iv, 2 mg/kg", "experimental": "Male SD rats were divided into groups of three animals each, which were administered the compound of Example 2 by intravenous injection (2 mg/kg), administered the compound of Example 2 by single oral gavage (10 mg/kg), and administered a control compound by single oral gavage (10 mg/kg), respectively. Animals were fasted overnight prior to dosing, beginning 10 hours before administration and continuing until 4 hours after dosing. For the intravenous group, blood samples were collected at 0.0833, 0.25, 0.5, 1, 2, 4, 6, 8, and 24 h post-dose. For the oral administration groups, blood samples were collected at 0.25, 0.5, 1, 2, 4, 6, 8, and 24 h post-dose. Blood samples (0.3 mL) were collected from the retro-orbital venous plexus under isoflurane anesthesia into heparinized tubes. The samples were centrifuged at 4000 rpm for 5 min at 4 °C, and plasma was transferred to centrifuge tubes and stored at -80°C until analysis. Plasma samples were processed by protein precipitation extraction, and the extracts were analyzed by LC/MS/MS. Pharmacokinetic results are shown in Tables 2 and 3: Table 2: Pharmacokinetic parameters of the compound in Example 2 in rat plasma after intravenous administration"}, "[3]": {"conditions": "read-out: brain/blood concentration ratio"}, "[4]": {"conditions": "male, SD, rat plasma, intravenous injection 2 mg/kg"}, "[5]": {"conditions": "male, SD, rat plasma, single oral gavage 10 mg/kg"}}, "note": "Like-named read-outs stand apart in the source and are kept apart here."}
{"smiles": "[2H]C([2H])([2H])NC(=O)c1nnc(NC(=O)C2CC2)cc1Nc1cccc(-c2ncn(C)n2)c1OC", "note": "[Deucravacitinib, reference compound]", "values": [{"measurement": "brain penetration (in words)", "setting": "[1]", "value": "very low brain penetration"}, {"measurement": "Kp at 0.5 h", "setting": "[1]; PO 10 mg/kg, 0.5 hours after administration, read-out: brain/blood concentration ratio", "value": 0.032}]}
{"smiles": "CNc1cc2nn3c(cnc13)C(=O)O[C@H](C)COCc1ccc(OC)c(c1)N2", "note": "[Example 1, (7R,E)-3^6-methoxy-7-methyl-1^8-(methylamino)-5,8-dioxa-2-aza-1(6,3)-imidazo[1,2-b]pyridazin-3(1,3)-benzocyclononan-9-one]", "values": [{"measurement": "Kp at 5 min", "setting": "[1]; [3]", "value": 3.15}, {"measurement": "IC50", "setting": "TYK2-JH2", "value": "< 5", "unit": "nM"}, {"measurement": "IC50", "setting": "JAK1-JH2", "value": "> 5000", "unit": "nM"}]}
{"smiles": "CNc1cc2nc3c(cnn13)C(=O)OC(C)COCc1ccc(OC)c(c1)N2", "note": "[Example 2, (R,1^3E,1^4E)-3^6-methoxy-7-methyl-1^7-(methylamino)-5,8-dioxa-2-aza-1(5,3)-pyrazolo[1,5-a]pyrimidin-3(1,3)-benzheterocyclononan-9-one]", "values": [{"measurement": "brain penetration (in words)", "setting": "[1]", "value": "remarkably high brain penetration"}, {"measurement": "brain/blood concentration ratio", "setting": "[1]; PO 10 mg/kg, 0.5 hours after administration", "value": 508, "unit": "%"}, {"measurement": "concentration at 0.5 h", "setting": "[1]; brain, read-out: concentration in brain tissue", "value": 2620, "unit": "ng/mL"}, {"measurement": "Kp at 0.5 h", "setting": "[1]; 10 mg/kg, 0.5 hours post oral dosing, printed as plain ratio, read-out: brain-blood concentration ratio", "value": 5.08}, {"measurement": "concentration at 0.5 h", "setting": "[1]; plasma, read-out: concentration in plamsa", "value": 515, "unit": "ng/mL"}, {"measurement": "IC50", "setting": "TYK2-JH2", "value": "< 5", "unit": "nM"}, {"measurement": "Vd", "setting": "[2]; male, SD, rat, rat plasma, intravenous injection 2 mg/kg, read-out: Vss", "value": 1.28, "unit": "L/kg"}, {"measurement": "Vd", "setting": "[2]; male, SD, rat, rat plasma, intravenous injection 2 mg/kg, read-out: Vz", "value": 1.33, "unit": "L/kg"}, {"measurement": "AUC(0-inf)", "setting": "[2]; [4]", "value": 2030, "unit": "ng·h/mL"}, {"measurement": "AUC(0-t)", "setting": "[2]; [4]", "value": 2020, "unit": "ng·h/mL"}, {"measurement": "C0", "setting": "[2]; [4]", "value": 2260, "unit": "ng/mL"}, {"measurement": "MRT", "setting": "[2]; [4]", "value": 1.28, "unit": "h"}, {"measurement": "clearance", "setting": "[2]; [4]", "value": 16.7, "unit": "mL/min/kg"}, {"measurement": "half-life", "setting": "[2]; [4]", "value": 0.93, "unit": "h"}, {"measurement": "AUC(0-inf)", "setting": "[2]; [5]", "value": 5780, "unit": "ng·h/mL"}, {"measurement": "AUC(0-t)", "setting": "[2]; [5]", "value": 5770, "unit": "ng·h/mL"}, {"measurement": "Cmax", "setting": "[2]; [5]", "value": 2460, "unit": "ng/mL"}, {"measurement": "MRT", "setting": "[2]; [5]", "value": 1.97, "unit": "h"}, {"measurement": "Tmax", "setting": "[2]; [5]", "value": 0.5, "unit": "h"}, {"measurement": "half-life", "setting": "[2]; [5]", "value": 2.46, "unit": "h"}, {"measurement": "Bioavialibility", "setting": "[2]; rat, oral 10 mg/kg vs intravenous 2 mg/kg", "value": 57.1, "unit": "%"}, {"measurement": "oral drug exposure (in words)", "setting": "[2]; rat, single oral gavage 10 mg/kg", "value": "much better than that of the control compounds A and B"}, {"measurement": "IC50", "setting": "JAK1-JH2", "value": "> 5000", "unit": "nM"}]}
{"smiles": "CNc1cc2nn3c(cnc13)C(=O)OC[C@H](C)OCc1ccc(OC)c(c1)N2", "note": "[Example 3, (6S, E)-3^6-methoxy-6-methyl-1^8-(methylamino)-5,8-dioxa-2-azazo-1(6,3)-imidazo[1,2-b]pyridazine-3(1,3)-benzheterocyclononan-9-one]", "values": [{"measurement": "IC50", "setting": "TYK2-JH2", "value": "< 20", "unit": "nM"}, {"measurement": "IC50", "setting": "JAK1-JH2", "value": "> 5000", "unit": "nM"}]}
{"smiles": "CNc1cc2nc3c(cnn13)C(=O)OCC(C)OCc1ccc(OC)c(c1)N2", "note": "[Example 4, (S, 1^3E,1^4E)-3^6-methoxy-6-methyl-1^7-(methylamino)-5,8-dioxa-2-azazo-1(5,3)-pyrazolo[1,5-a]pyrimidine-3(1,3)-benzheterocyclononan-9-one]", "values": [{"measurement": "IC50", "setting": "TYK2-JH2", "value": "< 20", "unit": "nM"}, {"measurement": "IC50", "setting": "JAK1-JH2", "value": "> 5000", "unit": "nM"}]}
{"smiles": "CNc1cc2nn3c(cnc13)C(=O)O[C@@H]1CCC[C@@H]1OCc1cc(c3nnn(C)c3c1)N2", "note": "[Example 5, (6^1R,6^2R,E)-3^1-methyl-1^8-(methylamino)-3^1H-5,7-dioxa-2-azazo-1(6,3)-imidazo[1,2-b]pyridazine-3(4,6)-benzo[d][1,2,3]triazole-6(1,2)-cyclopentane cyclooctafuran-8-one]", "values": [{"measurement": "Kp at 5 min", "setting": "[1]; [3]", "value": 1.21}, {"measurement": "IC50", "setting": "TYK2-JH2", "value": "< 5", "unit": "nM"}, {"measurement": "IC50", "setting": "JAK1-JH2", "value": "> 5000", "unit": "nM"}]}
{"smiles": "CNc1cc2nc3c(cnn13)C(=O)O[C@@H]1CCC[C@H]1OCc1cc(c3nnn(C)c3c1)N2", "note": "[Example 6, (1^3E,1^4E,6^1R,6^2R)-3^1-methyl-1^7-(methylamino)-3^1H-5,7-dioxa-2-azazo-1(5,3)-pyrazolo[1,5-a]pyrimidine-3(4,6)-benzo[d][1,2,3]triazole-6(1,2)-cyclopentane cyclooctafuran-8-one]", "values": [{"measurement": "Kp at 5 min", "setting": "[1]; [3]", "value": 0.322}, {"measurement": "IC50", "setting": "TYK2-JH2", "value": "< 10", "unit": "nM"}]}
{"smiles": "CNc1cc2nn3c(cnc13)C(=O)O[C@H](C)COCc1cc(c(=O)n(C)c1)N2", "note": "[Example 7, (1^5E,3^3E,7R)-3^1,7-dimethyl-1^8-(methylamino)-3^1,3^2-dihydro-5,8-dioxa-2-azazo-1(6,3)-imidazo[1,2-b]pyridazine-3(3,5)-pyridine heterocyclononane-3^2,9-dione]", "values": [{"measurement": "IC50", "setting": "TYK2-JH2", "value": "< 5", "unit": "nM"}, {"measurement": "IC50", "setting": "JAK1-JH2", "value": "> 5000", "unit": "nM"}]}
{"smiles": "CNc1cc2nc3c(cnn13)C(=O)O[C@H](C)COCc1cc(c(=O)n(C)c1)N2", "note": "[Example 8, (R,1^3E,1^4E,3^3E)-3^1,7-dimethyl-1^7-(methylamino)-3^1,3^2-dihydro-5,8-dioxa-2-azazo-1(5, 3)-pyrazolo[1,5-a]pyrimidine-3 (3,5)-pyridine heterocyclononane-3^2,9-dione]", "values": [{"measurement": "IC50", "setting": "TYK2-JH2", "value": "< 5", "unit": "nM"}, {"measurement": "IC50", "setting": "JAK1-JH2", "value": "> 5000", "unit": "nM"}]}
{"smiles": "CNc1cc2nn3c(cnc13)C(=O)N[C@@H]1CCC[C@H]1OCc1cc(c3nnn(C)c3c1)N2", "note": "[control compound A, reference compound]", "values": [{"measurement": "brain penetration (in words)", "setting": "[1]", "value": "very low brain penetration"}, {"measurement": "Kp at 5 min", "setting": "[1]; [3]", "value": 0.0879}, {"measurement": "IC50", "setting": "TYK2-JH2", "value": "< 5", "unit": "nM"}, {"measurement": "AUC(0-inf)", "setting": "[2]; [5]", "value": 735, "unit": "ng·h/mL"}, {"measurement": "AUC(0-t)", "setting": "[2]; [5]", "value": 592, "unit": "ng·h/mL"}, {"measurement": "Cmax", "setting": "[2]; [5]", "value": 126, "unit": "ng/mL"}, {"measurement": "MRT", "setting": "[2]; [5]", "value": 3.16, "unit": "h"}, {"measurement": "Tmax", "setting": "[2]; [5]", "value": 1.83, "unit": "h"}, {"measurement": "half-life", "setting": "[2]; [5]", "value": 3.07, "unit": "h"}, {"measurement": "IC50", "setting": "JAK1-JH2", "value": "> 1000", "unit": "nM"}]}
{"smiles": "CNc1cc2nc3c(cnn13)C(=O)N[C@H](C)COCc1ccc(OC)c(c1)N2", "note": "[control compound B, reference compound]", "values": [{"measurement": "Kp at 5 min", "setting": "[1]; [3]", "value": 0.228}, {"measurement": "AUC(0-inf)", "setting": "[2]; [5]", "value": 332, "unit": "ng·h/mL"}, {"measurement": "AUC(0-t)", "setting": "[2]; [5]", "value": 327, "unit": "ng·h/mL"}, {"measurement": "Cmax", "setting": "[2]; [5]", "value": 192, "unit": "ng/mL"}, {"measurement": "MRT", "setting": "[2]; [5]", "value": 1.63, "unit": "h"}, {"measurement": "Tmax", "setting": "[2]; [5]", "value": 0.5, "unit": "h"}, {"measurement": "half-life", "setting": "[2]; [5]", "value": 1.08, "unit": "h"}]}
